For assay [1], the target named is T1, human CYP11B2 (Homo sapiens, UniProt P19099).
T1 construct: expressed in transfected cells
T1 sequence (P19099 25-503): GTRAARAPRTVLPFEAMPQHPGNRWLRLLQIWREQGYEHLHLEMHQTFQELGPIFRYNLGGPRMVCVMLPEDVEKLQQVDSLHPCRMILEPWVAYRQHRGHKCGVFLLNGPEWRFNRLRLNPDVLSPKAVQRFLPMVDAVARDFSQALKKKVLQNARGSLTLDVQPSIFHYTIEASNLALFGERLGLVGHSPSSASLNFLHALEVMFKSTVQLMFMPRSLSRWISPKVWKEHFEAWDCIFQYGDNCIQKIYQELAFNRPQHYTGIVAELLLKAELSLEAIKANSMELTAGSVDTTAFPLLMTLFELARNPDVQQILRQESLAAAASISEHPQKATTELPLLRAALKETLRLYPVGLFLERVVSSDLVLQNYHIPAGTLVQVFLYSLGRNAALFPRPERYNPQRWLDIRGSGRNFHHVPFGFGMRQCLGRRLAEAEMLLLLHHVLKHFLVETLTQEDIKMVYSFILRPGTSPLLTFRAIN
The assay can be described thus: G-402 cellular enzyme assay, human CYP11B2 (aldosterone release, HTRF). Format: cell-based. The note with it: G-402 cells, 1 μM Deoxycorticosterone. A digest of the protocol: (§1)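 Stable G-402 transfectants; 16 h incubation with inhibitor plus substrate — CYP11B2: 1 μM deoxycorticosterone, aldosterone read; CYP11B1: 1 μM deoxycortisol, cortisol read. HTRF on supernatant. Medium DMEM/F12, 2.5% charcoal FCS. EC50 via MMF sigmoidal fit.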
For orientation: In TR-FRET formats the signal depends on donor and acceptor labels being close together.

The target of assay [2] is T2, human CYP11B1 (Homo sapiens, UniProt P15538).
T2 construct: expressed in transfected cells
T2 sequence (P15538 25-503): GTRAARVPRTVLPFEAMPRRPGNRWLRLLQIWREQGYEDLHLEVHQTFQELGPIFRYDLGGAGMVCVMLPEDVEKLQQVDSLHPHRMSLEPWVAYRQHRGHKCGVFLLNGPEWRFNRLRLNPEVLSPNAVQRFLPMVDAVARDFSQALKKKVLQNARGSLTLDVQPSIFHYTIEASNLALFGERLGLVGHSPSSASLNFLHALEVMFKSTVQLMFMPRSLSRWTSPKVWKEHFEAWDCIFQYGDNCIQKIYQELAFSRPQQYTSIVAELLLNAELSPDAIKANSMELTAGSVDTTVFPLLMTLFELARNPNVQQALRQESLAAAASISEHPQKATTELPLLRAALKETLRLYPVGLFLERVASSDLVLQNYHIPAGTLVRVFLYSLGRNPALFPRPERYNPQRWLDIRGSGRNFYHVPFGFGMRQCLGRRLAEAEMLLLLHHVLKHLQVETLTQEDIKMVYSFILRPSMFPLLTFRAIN
The assay can be described thus: G-402 cellular enzyme assay, human CYP11B1 (cortisol release, HTRF). Format: cell-based. The settings on record: G-402 cells, 1 μM Deoxycortisol. The method, boiled down:
as §1

Here are results for 26 compounds from patent US9133158B2, “Bicyclic dihydroisoquinoline-1-one derivatives” (Hoffmann-La Roche Inc., priority 2011, dated 2015).

With `O=C1c2ccc(Cl)cc2CCN1c1cncc(Cn2ccc3c(F)cccc32)c1` [Example 186, 6-Chloro-2-[5-(4-fluoro-indol-1-ylmethyl)-pyridin-3-yl]-3,4-dihydro-2H-isoquinolin-1-one], the EC50 (usually the midpoint of the concentration-response curve) came out at 23.2 nM in assay [1] and 211 nM in assay [2].
In the case of `O=C1c2ccc(Cl)cc2CCN1c1cncc(COCC2CC2)c1` [Example 198, 6-Chloro-2-(5-cyclopropylmethoxymethyl-pyridin-3-yl)-3,4-dihydro-2H-isoquinolin-1-one], the EC50 is 2450 nM in assay [1] and 990 nM in assay [2].
`COC(c1cncc(N2CCc3cc(Cl)ccc3C2=O)c1)C(F)(F)F` (stereo not shown) [Example 19, 6-Chloro-2-[5-(2,2,2-trifluoro-1-methoxy-ethyl)-pyridin-3-yl]-3,4-dihydro-2H-isoquinolin-1-one]: the EC50 came to 60.3 nM in assay [1] and 198 nM in assay [2].
With `CC(c1cncc(N2CCc3cc(Cl)ccc3C2=O)c1)n1cncn1` (stereo not shown) [Example 273, 6-Chloro-2-[5-(1-[1,2,4]triazol-1-yl-ethyl)-pyridin-3-yl]-3,4-dihydro-2H-isoquinolin-1-one], the results for the EC50 in assay [1] and in assay [2] were 64 nM and 449 nM, respectively.
`CC1(C)c2cc(Cl)ccc2C(=O)N1c1cncc(CN2CCCCC2=O)c1` [Example 410, 5-Chloro-3,3-dimethyl-2-[5-(2-oxo-piperidin-1-ylmethyl)-pyridin-3-yl]-2,3-dihydro-isoindol-1-one]: the EC50 was found to be 16.5 nM in assay [1] and 1730 nM in assay [2].
Regarding `O=C1c2ccc(Cl)cc2CCN1c1cncc(CN2CCC(F)(F)C2)c1` [Example 169, 6-Chloro-2-[5-(3,3-difluoro-pyrrolidin-1-ylmethyl)-pyridin-3-yl]-3,4-dihydro-2H-isoquinolin-1-one], the EC50 came to 5.2 nM in assay [1] and 38.1 nM in assay [2].
As for `O=C(c1cncc(N2CCc3cc(Cl)ccc3C2=O)c1)N1CCCC1` [Example 42, 6-Chloro-2-[5-(pyrrolidine-1-carbonyl)-pyridin-3-yl]-3,4-dihydro-2H-isoquinolin-1-one], the EC50 turned out to be 327 nM in assay [1] and 7860 nM in assay [2].
As for `O=C1c2ccc(Cl)cc2CCN1c1cncc(-c2cc(F)ccc2F)c1` [Example 235, 6-Chloro-2-[5-(2,5-difluoro-phenyl)-pyridin-3-yl]-3,4-dihydro-2H-isoquinolin-1-one], the EC50 in assay [1] worked out at 22.7 nM; in assay [2], 221 nM.
The like results for `C[C@H]1Cc2cc(Cl)ccc2C(=O)N1c1cccnc1` [Example 92, (S)-6-Chloro-3-methyl-2-pyridin-3-yl-3,4-dihydro-2H-isoquinolin-1-one] were, in that order, 268 nM and 11400 nM.
The like results for `CC1(C)c2cc(Cl)ccc2C(=O)N1c1cncc(N2CCN(C(=O)c3ncccc3Cl)CC2)c1` [Example 459, 5-Chloro-2-{5-[4-(3-chloro-pyridine-2-carbonyl)-piperazin-1-yl]-pyridin-3-yl}-3,3-dimethyl-2,3-dihydro-isoindol-1-one] were, in that order, 5.6 nM and 594 nM.
Turning to `CC(O)(c1cc(F)cc(F)c1)c1cncc(N2CCc3cc(Cl)ccc3C2=O)c1` (stereo not shown) [Example 37, 6-Chloro-2-{5-[1-(3,5-difluoro-phenyl)-1-hydroxy-ethyl]-pyridin-3-yl}-3,4-dihydro-2H-isoquinolin-1-one], the EC50 in assay [1] is 9.2 nM; in assay [2], 149 nM.
For the compound `O=C1c2ccc(Cl)cc2CCN1c1cncc(C(O)c2cc(F)cc(F)c2)c1` (stereo not shown) [Example 32, 6-Chloro-2-{5-[(3,5-difluoro-phenyl)-hydroxy-methyl]-pyridin-3-yl}-3,4-dihydro-2H-isoquinolin-1-one], the EC50 in assay [1] turned out to be 46.8 nM; in assay [2], 514 nM.
The like results for `O=C(Nc1cncc(N2CCc3cc(Cl)ccc3C2=O)c1)c1ccc(F)cc1` [Example 249, N-[5-(6-Chloro-1-oxo-3,4-dihydro-1H-isoquinolin-2-yl)-pyridin-3-yl]-4-fluoro-benzamide] were, in that order, 3220 nM and 7600 nM.
In the case of `CC(=O)N[C@H]1CCCc2c1cncc2N1C(=O)c2ccc(Cl)cc2[C@@H]1C` (single isomer, unassigned) [Example 365, N-[(S or R)-4-((S or R)-5-Chloro-3-methyl-1-oxo-1,3-dihydro-isoindol-2-yl)-5,6,7,8-tetrahydro-isoquinolin-8-yl]-acetamide], the values for the EC50 in assay [1] and in assay [2] were 337 nM and 15900 nM, respectively.
As to `CC(c1cncc(N2CCc3cc(Cl)ccc3C2=O)c1)n1nccn1` (stereo not shown) [Example 269, 6-Chloro-2-[5-(1-[1,2,3]triazol-2-yl-ethyl)-pyridin-3-yl]-3,4-dihydro-2H-isoquinolin-1-one], the EC50 in assay [1] worked out at 46.2 nM; in assay [2], 425 nM.
Turning to `CC(=O)N[C@@H]1CCCc2c1cncc2N1C(=O)c2ccc(Cl)cc2[C@H]1C` (single isomer, unassigned) [Example 364, N-[(R or S)-4-((R or S)-5-Chloro-3-methyl-1-oxo-1,3-dihydro-isoindol-2-yl)-5,6,7,8-tetrahydro-isoquinolin-8-yl]-acetamide], the EC50 in assay [1] was 130 nM; in assay [2] it was 5570 nM.
The like results for `CCS(=O)(=O)NCc1cncc(N2C(=O)c3ccc(F)cc3C23CC3)c1` [Example 393, N-{[5-(6′-Fluoro-3′-oxospiro [cyclopropane-1,1′-isoindol]-2′(3′H)-yl)pyridin-3-yl]methyl} ethane-sulfonamide] were, in that order, 265 nM and 8430 nM.
`O=C1c2ccc(Cl)cc2CCN1c1cncc(Cc2cc(F)ccc2F)c1` [Example 212, 6-Chloro-2-[5-(2,5-difluoro-benzyl)-pyridin-3-yl]-3,4-dihydro-2H-isoquinolin-1-one]: the EC50 in assay [1] came out at 8.4 nM; in assay [2], 81.6 nM.
Regarding `O=C1c2ccc(Cl)cc2CN1c1cncc2c1CCC[C@H]2O` [Example 341, 5-Chloro-2-((R)-8-hydroxy-5,6,7,8-tetrahydro-isoquinolin-4-yl)-2,3-dihydro-isoindol-1-one], the EC50 in assay [1] stood at 32.1 nM; in assay [2], 1680 nM.
The like results for `CCS(=O)(=O)NC1CCCc2c1cncc2N1Cc2cc(Cl)ccc2C1=O` (racemic) [Example 315, Ethanesulfonic acid [4-(5-chloro-1-oxo-1,3-dihydro-isoindol-2-yl)-5,6,7,8-tetrahydro-isoquinolin-8-yl]-amide] were, in that order, 1050 nM and 31000 nM.
Take `Cc1ccnn1Cc1cncc(N2CCc3cc(Cl)ccc3C2=O)c1` [Example 71, 6-Chloro-2-[5-(5-methyl-pyrazol-1-ylmethyl)-pyridin-3-yl]-3,4-dihydro-2H-isoquinolin-1-one]: the concentration giving a half-maximal response (EC50) in assay [1] came out at 90.2 nM; in assay [2], 1580 nM.
For the compound `CC(=O)N[C@H]1CCCc2c1cncc2N1C(=O)c2ccc(Cl)cc2[C@H]1C` (single isomer, unassigned) [Example 363, N-[(S or R)-4-((R or S)-5-Chloro-3-methyl-1-oxo-1,3-dihydro-isoindol-2-yl)-5,6,7,8-tetrahydro-isoquinolin-8-yl]-acetamide], the EC50 in assay [1] was 171 nM; in assay [2], 2330 nM.
For `COc1cncc(N2C(=O)c3ccc(Cl)cc3C2(C)C)c1` [Example 130, 5-Chloro-2-(5-methoxy-pyridin-3-yl)-3,3-dimethyl-2,3-dihydro-isoindol-1-one] the same measures were 15.5 nM and 240 nM.
Turning to `CC(=O)N1CC(Oc2cncc(N3C(=O)c4ccc(Cl)cc4C3(C)C)c2)C1` [Example 450, 2-[5-(1-Acetyl-azetidin-3-yloxy)-pyridin-3-yl]-5-chloro-3,3-dimethyl-2,3-dihydro-isoindol-1-one], the EC50 in assay [1] came to 122 nM; in assay [2] it was 20100 nM.
Take `O=C1c2ccc(Cl)cc2CCN1c1cncc2c1CCCC2O` (stereo not shown) [Example 28, 6-Chloro-8′-hydroxy-3,4,5′,6′,7′,8′-hexahydro-[2,4′]biisoquinolinyl-1-one]: the EC50 in assay [1] worked out at 104 nM; in assay [2] it was 757 nM.
Take `CC1(C)c2cc(Cl)ccc2C(=O)N1c1cncc(CN2CCCS2(=O)=O)c1` [Example 409, 5-Chloro-2-[5-(1,1-dioxo-1λ6-isothiazolidin-2-ylmethyl)-pyridin-3-yl]-3,3-dimethyl-2,3-dihydro-isoindol-1-one]: the figures for the EC50 in assay [1] and in assay [2] were 6.9 nM and 429 nM, respectively.
